The star is where a group is joined. Palmitoyl = CCCCCCCCCCCCCCCC(=O)*

For the experiment, the system named is type I collagen. The experiment can be described thus: Determination of collagen biosynthesis (type I collagen ELISA), single peptides and mixture, Example 10. Format: cell-based, human. Conditions: 20, 40 and 80 μg/ml, 72 hours; ELISA O.D. 450 nm; vs untreated cells. As for the experimental part: Human Dermal Fibroblasts (ATCC PCS-201-012) were seeded in 96-well plates (3000 cells per well), and left to grow in DMEM containing 5% fetal bovine serum (FBS) for 48 hours. The medium was then replaced with fresh medium containing 0.1% FBS and the corresponding treatment for determining collagen production. After the incubation with each of the peptides (1, 2, and 3) and the mixture of peptides 1-3 synthesized in Example 1, at different concentrations (20, 40 and 80 μg/ml) of each peptide dissolved in DMEM medium in an equivalent proportion of each of them in the mixture (1:1:1 w/w/w), for a period of 72 hours, the same amounts of supernatant were added to a plate coated with human type I collagen antibody (commercial rabbit polyclonal antibodies against human collagen I, code A03C0377, provided by Bluegene Biotech Co. Ltd). The plate was incubated at room temperature for 2 hours to allow the antibody and the produced collagen to react with one another. The plate was then washed three times with PBS containing 0.5% Tween 20 for removing the remaining unbound sample. Next, a human antibody which recognizes the biotin-labeled type I collagen was added for 1 hour. After washing the plate with phosphate buffered saline (PBS) containing 0.5% Tween 20 for removing non-specific interactions, streptavidin-horseradish peroxidase (HRP) (St Louis, Sigma) was added. The amount of collagen in each well was determined using tetramethylbenzidine (TMB) (St Louis, Sigma) as the substrate for the HRP. The reaction between the HRP and TMB was stopped by adding 1 N HCl, and the O.D. (optical density) was measured at 450 nm. The untreated cells represented the negative control of the experiment.
(In general: ELISA stands for enzyme-linked immunosorbent assay.)
With “Palm-RGDGANPNAAG-NH2 (Palmitoyl-RGDGANPNAAG-NH2; SMILES CCCCCCCCCCCCCCCC(=O)N[C@@H](CCCNC(=N)N)C(=O)NCC(=O)N[C@@H](CC(=O)O)C(=O)NCC(=O)N[C@@H](C)C(=O)N[C@@H](CC(N)=O)C(=O)N1CCC[C@H]1C(=O)N[C@@H](CC(N)=O)C(=O)N[C@@H](C)C(=O)N[C@@H](C)C(=O)NCC(N)=O) [Peptide 1]”, the “induction of type I collagen” value is “capable of inducing type I collagen production”.

In the case of “Palm-RGDGPQGPQ-NH2 (Palmitoyl-RGDGPQGPQ-NH2; SMILES CCCCCCCCCCCCCCCC(=O)N[C@@H](CCCNC(=N)N)C(=O)NCC(=O)N[C@@H](CC(=O)O)C(=O)NCC(=O)N1CCC[C@H]1C(=O)N[C@@H](CCC(N)=O)C(=O)NCC(=O)N1CCC[C@H]1C(=O)N[C@@H](CCC(N)=O)C(N)=O) [Peptide 2]”, the “induction of type I collagen” value is listed as “capable of inducing type I collagen production”.

Take “Palm-WRFQWQFEQ-NH2 (Palmitoyl-WRFQWQFEQ-NH2; SMILES CCCCCCCCCCCCCCCC(=O)N[C@@H](Cc1c[nH]c2ccccc12)C(=O)N[C@@H](CCCNC(=N)N)C(=O)N[C@@H](Cc1ccccc1)C(=O)N[C@@H](CCC(N)=O)C(=O)N[C@@H](Cc1c[nH]c2ccccc12)C(=O)N[C@@H](CCC(N)=O)C(=O)N[C@@H](Cc1ccccc1)C(=O)N[C@@H](CCC(=O)O)C(=O)N[C@@H](CCC(N)=O)C(N)=O) [Peptide 3]”: the “induction of type I collagen” value is “capable of inducing type I collagen production”.

For the origin of these results see US9932368B2, “Peptides for the stimulation of collagen formation” (INFINITEC ACTIVOS S.L, priority 2013, dated 2018).
